Measured values reported in patent EP4772186A1, “USE AND COMPOSITION OF POSTBIOTIC OF LACTOBACILLUS PARACASEI ET-22” (Inner Mongolia Yili Industrial Group Co., Ltd., priority 2023, dated 2025).

System: biofilm
Test: confocal laser scanning microscopy (CLSM) of biofilm thickness
Type: cell-based, halitosis subjects (saliva)
Method: (§1) Lysate group: A HA disc was placed in a 96-well plate. 10 µl of saliva was added to the 96-well plate, followed by separate addition of ET-22 viable bacteria (1.0×10^9 CFU/ml), ET-22 heat-inactivated bacterial cells (obtained by inactivating viable bacteria at 1.0×10^9 CFU/ml), and lysate (obtained by inactivating and filtering viable bacteria at 1.0×10^9 CFU/ml), each at 10 µl. Then, 80 µl of SHI medium was added. The 96-well plate was placed in an anaerobic box and cultured anaerobically at 37°C for 10 hours.
as §1, with “NAD” for “Lysate”, “heat-inactivating” for “inactivating”, “NAD (100 µg/ml),” for “lysate (obtained by inactivating and filtering viable bacteria at 1.0×10^9 CFU/ml),”
2-hydroxy-3-phenylpropionic acid group: A HA disc was placed in a 96-well plate. 10 µl of saliva was added to the 96-well plate, followed by separate addition of ET-22 viable bacteria (1.0×10^9 CFU/ml), ET-22 heat-inactivated bacterial cells (obtained by heat-inactivating viable bacteria at 1.0×10^9 CFU/ml), and 2-hydroxy-3-phenylpropionic acid (100 µg/ml), each at 10 µl. Then, 80 µl of SHI medium was added. […]

Question: `O=C(O)C(O)Cc1ccccc1` (centres unmarked) [2-hydroxy-3-phenylpropionic acid] was tested. Which biofilm thickness (compared with CK group, HA disc, pure components 100 µg/ml, others from 1.0×10^9 CFU/ml, 37°C 10 hours) did it give?
Answer: significantly reduce the biofilm thickness

Question: What about the “intervention effect on biofilm thickness” value (relative to ET-22 viable bacteria and ET-22 heat-inactivated bacteria) of the same compound?
Answer: superior
